A short description of data set [1]: Patient case records: body weight during co-administration of an anticholinesterase agent and an antidepressant. More on the design: Weight / Wt. Chg. / Δ Wt.: unit not given here. Conditions: for Wt. Chg.: positive = loss. In kind it is in vivo, human. The source says:
The following examples illustrate exemplified treatment regimens and resultant synergistic effects in achieving long-term stable weight loss by co-administering to an individual an anticholinesterase agent and an antidepressant. Each patient is given an alphanumeric designator.

The test system of the next data set is P450 cytochrome. Conditions: cited from earlier work.
The conditions of data set [2]: doses over 300 mg a day; cited from earlier work.
For data set [3] the following is noted: in vivo; cited from earlier work.
The mark [4] stands for this setting: Patient B3, comments wrap over rows: 'Epigastric discomfort, no vomiting.' (day 70), 'Bowels a little loose' (day 126), 'Vomiting after rivastigmine at supper' (day 175), 'Diethylpropion made them vomit twice.' (day 189).
The mark [5] stands for this setting: patient R2, day 14, baseline 209.3, venlafaxine 75 mg alone, no rivastigmine.
Where [6] appears, read: patient R2, day 35, baseline 209.3, venlafaxine 75 mg alone, no rivastigmine.
Where [7] appears, read: patient R2, day 111, baseline 209.3, venlafaxine 75 mg alone, no rivastigmine.

“Also recorded” adds a separate entry of the source.

In the case of `CCN(CC)C(C)C(=O)c1ccccc1` (stereo not shown) [Diethylpropion, diethylpropion], the “Comments (side effects)” value in data set [1] (setting [4]) is reported as “vomit”.

As for `CN(C)C(=N)N=C(N)N` [Metformin], the “Comments (side effects)” value in data set [1] (Patient B1, comment wraps over rows: 'Sweating and uncomfortable stomach in a.m.' (day 59), 'Metformin causes diarrhea') was “diarrhea”.

For the compound `CCN(C)C(=O)Oc1cccc([C@H](C)N(C)C)c1` [Riva.], the “Comments: adverse effects” value in data set [1] (patient M1, day 153, Tried 12 mg of Riva.) is “Caused vomit-; also recorded: ing, diarrhea,; also recorded: dizzy. B.P”. Further, in data set [1] (patient M1, day 153, Tried 12 mg of Riva., initial B.P. 140/100), the “B.P. (Comments)” value was 88/64.

For `CCN(C)C(=O)Oc1cccc([C@H](C)N(C)C)c1` [Rivastigmine, rivastigmine], in data set [1] (setting [4]), the “Comments (side effects)” value is listed as “Vomiting”. Further, the “metabolism by the P450 cytochrome” value with P450 cytochrome was “not metabolized by the P450 cytochrome”.

For the compound `COc1ccc(C(CN(C)C)C2(O)CCCCC2)cc1` (stereo not shown) [Venlafaxine, venlafaxine], the “Δ Wt.” value in data set [1] (Patient F1, change from baseline 214.5, positive = weight lost, visit day = Days column (7-512)) was 6.0. Besides, the Weight in data set [1] (human, in vivo) is given as 208.5; in data set [1] (setting [5]) it was 207.5; in data set [1] (setting [6]), 206.0; in data set [1] (setting [7]), 213.3. Besides, the “Wt. Chg.” value is reported as 1.8 in data set [1] (setting [5]), 3.3 in data set [1] (setting [6]) and −4.0 in data set [1] (setting [7]). In addition, in data set [2], the “patients with a mild increase in blood pressure” value was 15%. For the same compound, the “absorption, influence of food” value in data set [3] is listed as “not influenced by the presence of food”.

The values are drawn from patent US20050143350A1, “Combination drug therapy to treat obesity” (priority 2003, published 2005).
